These results are taken from patent publication US7205403B2, “8-Heteroaryl xanthine adenosine A2B receptor antagonists” (King Pharmaceuticals Research and Development, Inc., priority 2002, dated 2007).

Test [1] has as its target T1, human A2A adenosine receptor (Homo sapiens, UniProt P29274).
T1 construct: expressed in transfected cells; host or cells: CHO cells (membranes)
Kind of test: [3H]ZM241385 binding to human A2A receptors expressed in CHO cells. An outline of the steps: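 Membranes from adherent CHO cells, resuspended in 50 mM Tris HCl with 10 mM MgCl2, pH 7.4. The inhibitory binding constant is reported.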

Test [2] concerns the target T2, human A2B adenosine receptor (Homo sapiens, UniProt P29275).
T2 sequence (P29275 1-332): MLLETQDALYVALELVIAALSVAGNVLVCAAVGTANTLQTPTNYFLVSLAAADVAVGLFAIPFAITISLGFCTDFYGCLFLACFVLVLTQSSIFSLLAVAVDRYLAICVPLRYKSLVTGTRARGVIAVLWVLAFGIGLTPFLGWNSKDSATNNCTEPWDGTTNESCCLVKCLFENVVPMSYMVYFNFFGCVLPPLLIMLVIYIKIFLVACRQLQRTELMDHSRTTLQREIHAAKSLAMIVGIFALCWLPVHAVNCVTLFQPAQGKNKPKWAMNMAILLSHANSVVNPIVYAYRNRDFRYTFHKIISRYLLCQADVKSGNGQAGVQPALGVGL
The experiment in a line: Cyclic AMP assay, antagonism of NECA-stimulated cAMP in CHO cells transfected with human A2B receptors. Type of test: cell-based. As for the experimental part:
Measurement of cyclic AMP (CAMP) levels in CHO cells transfected with human A2B adenosine receptors was performed in the following manner. CHO cells transfected with human A2B adenosine receptors were washed with phosphate-buffered saline, diluted tripsine and centrifuged for 10 minutes at 200 g.
The reaction was terminated by the addition of cold 6% thrichloroacetic acid (TCA). The TCA suspension was centrifuged at 2000 g for 10 minutes at 4° C. and the supernatant was extracted four times with water saturated diethyl ether. The final aqueous, solution was tested for cAMP levels by a competition protein binding assay. Samples of cAMP standard (0–10 pmoles) were added to each test tube containing the incubation buffer (trizma base 0.1 M, aminophylline 8.0 mM, 2-mercaptoethanol 6.0 mM, pH 7.4) and [H^3]-cAMP in a total volume of 0.5 ml. The binding protein previously prepared from beef adrenals, was added to the samples previously incubated at 4° C. for 150 minutes, and after the addition of charcoal were centrifuged at 2000 g for 10 minutes. The clear supernatant was counted in a Beckman scintillation counter.
Finally, to evaluate the regulation of adenylyl cyclase activity and to test whether the binding parameters correlated with the functional response, the IC50 values were obtained for inhibition of cAMP production by antagonists. In particular, we evaluated the capability of the several compounds to inhibit NECA (100 nM)-stimulated cyclic AMP accumulation.

Test [3] addresses T2, human A2B adenosine receptor. The experiment in a line: [3H]DPCPX binding to human A2B receptors expressed in HEK293 cells. Details: host or cells: HEK 293 cells (membranes). In outline:
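Membranes (20 μg protein) from HEK293 cells expressing recombinant human A2B receptor were incubated 60 min at 25° C with 40 nM [3H]-DPCPX and 6–8 compound concentrations. Buffer was Tris-HCl with MgCl2, 1 mM EDTA, 0.1 mM benzamidine and 2 IU/ml adenosine deaminase, pH 7.4. Filter-bound radioactivity gave the inhibitory binding constant.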

The target of test [4] is T3, human A3 adenosine receptor (Homo sapiens, UniProt P0DMS8).
T3 construct: expressed in transfected cells; host or cells: CHO cells (membranes)
T3 sequence (P0DMS8 1-318): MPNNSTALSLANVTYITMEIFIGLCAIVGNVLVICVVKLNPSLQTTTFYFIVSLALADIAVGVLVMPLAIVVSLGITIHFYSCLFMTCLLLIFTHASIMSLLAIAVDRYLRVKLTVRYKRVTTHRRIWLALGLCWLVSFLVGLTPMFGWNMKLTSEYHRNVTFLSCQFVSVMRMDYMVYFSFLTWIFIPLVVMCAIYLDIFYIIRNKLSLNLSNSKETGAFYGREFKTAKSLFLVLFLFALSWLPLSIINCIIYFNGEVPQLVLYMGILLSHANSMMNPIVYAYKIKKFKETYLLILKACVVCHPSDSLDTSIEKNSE
Kind of test: [3H]MRE3008F20 binding to human A3 receptors expressed in CHO cells. An outline of the steps: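 CHO cell membranes (50 μg protein) competed against 1 nM [3H]-MRE3008-F20 in 50 mM Tris HCl, MgCl2, pH 7.4, with 6–8 ligand concentrations in duplicate, 120 minutes at 4° C. Filter-bound radioactivity counted by scintillation; inhibitory binding constants derived.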

The target of test [5] is T4, human A1 adenosine receptor (Homo sapiens, UniProt P30542).
T4 construct: expressed in transfected cells; host or cells: CHO cells (membranes)
T4 sequence (P30542 1-326): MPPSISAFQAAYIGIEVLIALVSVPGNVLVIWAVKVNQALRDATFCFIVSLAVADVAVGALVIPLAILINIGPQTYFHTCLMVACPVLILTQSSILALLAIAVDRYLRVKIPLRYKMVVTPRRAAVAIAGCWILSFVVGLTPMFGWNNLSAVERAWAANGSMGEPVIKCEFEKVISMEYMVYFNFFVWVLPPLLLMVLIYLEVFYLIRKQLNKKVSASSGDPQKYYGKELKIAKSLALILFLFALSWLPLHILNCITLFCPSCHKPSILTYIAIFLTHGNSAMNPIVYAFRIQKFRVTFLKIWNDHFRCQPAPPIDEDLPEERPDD
Kind of test: [3H]DPCPX binding to human A1 receptors expressed in CHO cells. The note with it: geometric mean (95% confidence interval); >1000 = no appreciable binding.

Where [6] appears, read: read-out: Ki, [3H]ZM241385 binding to human A2A receptors expressed in CHO cells.
Setting [7] is: inhibition of NECA (100 nM)-stimulated cAMP, geometric mean (95% confidence limits).
The mark [8] stands for this setting: Table 2, geometric mean (95% confidence limits), at least three experiments in duplicate, read-out: [3H]-DPCPX binding to human A2B receptors in HEK 293 cells Ki.
The mark [9] stands for this setting: geometric mean (95% confidence interval), >1000 = no appreciable binding, read-out: Ki, [3H]DPCPX binding to human A2B receptors expressed in HEK293 cells.
Setting [10] is: geometric mean (95% confidence interval), >1000 = no appreciable binding.

Entries after “also recorded” stand apart in the source; their conditions may differ. Read-outs that look alike come from different tables or passages of the source.

T1 sequence (P29274 whole entry): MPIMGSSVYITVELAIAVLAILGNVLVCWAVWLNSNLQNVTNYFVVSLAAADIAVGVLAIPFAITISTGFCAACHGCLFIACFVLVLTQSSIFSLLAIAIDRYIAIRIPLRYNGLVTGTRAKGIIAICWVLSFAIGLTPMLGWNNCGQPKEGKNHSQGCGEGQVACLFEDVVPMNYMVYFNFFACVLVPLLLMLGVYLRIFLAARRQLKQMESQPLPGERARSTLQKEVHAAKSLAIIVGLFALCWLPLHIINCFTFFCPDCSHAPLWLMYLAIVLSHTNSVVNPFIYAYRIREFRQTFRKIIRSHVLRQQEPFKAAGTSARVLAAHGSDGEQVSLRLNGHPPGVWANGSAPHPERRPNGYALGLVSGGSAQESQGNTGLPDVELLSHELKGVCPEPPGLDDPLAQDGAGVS

Turning to `CCCn1c(=O)c2[nH]c(-c3cc(NC(=O)Cc4ccccc4)nn3C)nc2n(CCC)c1=O` [AS11, N-[5-(2,6-dioxo-1,3-dipropyl-2,3,6,9-tetrahydro-1H-purin-8-yl)-1-methyl-1H-pyrazol-3-yl]-2-phenylacetamide], the Ki in test [1] (setting [6]) was more than 1000 nM; in test [3] (setting [8]) it was 35 nM; in test [3] (setting [9]) it was 35 nM; in test [4], more than 1000 nM; in test [5], 900 nM. For the same compound, in test [2] (setting [7]), half-maximal inhibition (IC50) was put at 103 nM.

In test [2] (setting [7]), `CCCn1c(=O)c2[nH]c(-c3cc(NC(=O)Cc4ccccc4)n(C)n3)nc2n(CCC)c1=O` [AS35] had an IC50 of 152 nM. The inhibition constant (Ki) in test [3] (setting [8]) and in test [3] (setting [9]) was 34 nM throughout.

Regarding `CCCn1c(=O)c2[nH]c(-c3cc(NC(=O)Cc4ccc(Cl)cc4)nn3C)nc2n(CCC)c1=O` [AS27, N-[5-(2,6-dioxo-1,3-dipropyl-2,3,6,9-tetrahydro-1H-purin-8-yl)-1-methyl-1H-pyrazol-3-yl]-2-(4-chlorophenyl)acetamide], the Ki was more than 1000 nM in test [1] (setting [6]); 28 nM in test [3] (setting [8]); 28 nM in test [3] (setting [9]); more than 1000 nM in test [4]; 520 nM in test [5]. In addition, half-maximal inhibition in test [2] (setting [7]) (IC50) required 128 nM.

For the compound `CCCn1c(=O)c2[nH]c(-c3cc(NC(=O)Cc4ccc(OCc5ccccc5C(F)(F)F)cc4)nn3C)nc2n(CCC)c1=O` [AS29, N-[5-(2,6-dioxo-1,3-dipropyl-2,3,6,9-tetrahydro-1H-purin-8-yl)-1-methyl-1H-pyrazol-3-yl]-2-(4-{[2-(trifluoromethyl)benzyl]oxy}phenyl)acetamide], the Ki in test [1] (setting [6]) was more than 1000 nM; in test [3] (setting [8]) it was 13 nM; in test [3] (setting [9]), 13 nM; in test [4], more than 1000 nM; in test [5], 56 nM. Also, the half-inhibitory concentration (IC50) in test [2] (setting [7]) is 93 nM.

With `CCCn1c(=O)c2[nH]c(-c3cc(NC(=O)Nc4cccc(Cl)c4)nn3C)nc2n(CCC)c1=O` [AS54, N-(3-chlorophenyl)-N'-[5-(2,6-dioxo-1,3-dipropyl-2,3,6,7-tetrahydro-1H-purin-8-yl)-1-methyl-1H-pyrazol-3-yl]urea], the inhibition constant Ki in test [1] (setting [6]) was more than 1000 nM; in test [3] (setting [8]) it was 39 nM; in test [3] (setting [9]), 39 nM; in test [4] it was more than 1000 nM; in test [5], 448 nM. The same compound had an IC50 in test [2] of 136 nM.

As to `CCCn1c(=O)c2[nH]c(-c3cc(OCC(=O)Nc4ccc(Br)cc4)nn3C)nc2n(CCC)c1=O` [AS65, 2-{[5-(2,6-dioxo-1,3-dipropyl-2,3,6,9-tetrahydro-1H-purin-8-yl)-1-methyl-1H-pyrazol-3-yl]oxy}-N-(4-bromophenyl)acetamide], the inhibition constant Ki in test [1] (setting [6]) was more than 1000 nM; in test [3] (setting [8]), 20 nM; in test [3] (setting [9]) it was 20 nM; in test [4], more than 1000 nM; in test [5], 150 nM. This compound came in with a half-maximal inhibitory concentration (IC50) in test [2] (setting [7]) of 108 nM.

Consider `CCCn1c(=O)c2[nH]c(-c3cc(NC(=O)Cc4ccc5c(c4)OCO5)nn3C)nc2n(CCC)c1=O` [AS57, 2-(1,3-benzodioxol-5-yl)-N-[5-(2,6-dioxo-1,3-dipropyl-2,3,6,9-tetrahydro-1H-purin-8-yl)-1-methyl-1H-pyrazol-3-yl]acetamide], for which the inhibitory constant (Ki) in test [1] is 1250 nM; in test [3] (setting [8]) it was 18 nM; in test [3] (setting [9]), 18 nM; in test [4], more than 1000 nM; in test [5], 566 nM. The compound further yielded a half-maximal inhibitory concentration (IC50) in test [2] (setting [7]) of 95 nM.

On to `CCCn1c(=O)c2[nH]c(-c3cc(NC(=O)Cc4ccc(OC)c(OC)c4)nn3C)nc2n(CCC)c1=O` [AS28, 2-(3,4-dimethoxyphenyl)-N-[5-(2,6-dioxo-1,3-dipropyl-2,3,6,9-tetrahydro-1H-purin-8-yl)-1-methyl-1H-pyrazol-3-yl]acetamide], for which the “Ki, [3H]ZM241385 binding to human A2A receptors expressed in CHO cells” value in test [1] (setting [10]) is “no appreciable binding; also recorded: without significant binding”. In addition, the Ki was more than 1000 nM in test [1] (setting [6]), 38 nM in test [3] (setting [8]), 38 nM in test [3] (setting [9]) and more than 1000 nM in test [4]. For the same compound, the half-maximal inhibitory concentration (IC50) in test [2] (setting [7]) was 120 nM. For the same compound, in test [4] (setting [10]), the “Ki, [3H]MRE3008F20 binding to human A3 receptors expressed in CHO cells” value is “no appreciable binding; also recorded: without significant binding”. Also, the “Ki, [3H]DPCPX binding to human A1 receptors expressed in CHO cells” value in test [5] is “no appreciable binding; also recorded: without significant binding”.
